Measured values: PubChem BioAssay AID248 (DTP/NCI, 2004)
Several values for one entry are separate records, joined by “and”; a condition that tells them apart may be missing. Equal entries are not always repeated. Toxic doses and inconclusive results are not listed. Rule as the data show it: active = T/C of 150% or more; inactive = T/C below 125%.

System: L1210 leukemia ip in BDF1 mice, survival T/C
Experiment: NCI In Vivo Anticancer Drug Screen. Data for tumor model L1210 Leukemia (intraperitoneal) in B6D2F1 (BDF1) mice
Conditions: endpoint: mean survival time, higher = longer survival
Procedure, shortened: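 Transplanted-tumor mice were given test agent; controls received vehicle only. Survival readings from the two groups were divided (treated over control).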

[1] = dose: 25.0 mg/kg/injection, schedule: Q01DX009 (ip), vehicle: saline with Tween-80
[2] = dose: 25.0 mg/kg/injection, schedule: Q01DX009 (ip), vehicle: saline
[3] = dose: 25.0 mg/kg/injection, schedule: Q04DX003 (ip), vehicle: saline
[4] = dose: 50.0 mg/kg/injection, schedule: Q01DX009 (ip), vehicle: saline with Tween-80
[5] = dose: 50.0 mg/kg/injection, schedule: Q01DX009 (ip), vehicle: saline
[6] = dose: 50.0 mg/kg/injection, schedule: Q04DX003 (ip), vehicle: saline
[7] = dose: 100.0 mg/kg/injection, schedule: Q01DX009 (ip), vehicle: saline with Tween-80
[8] = dose: 100.0 mg/kg/injection, schedule: Q04DX003 (ip), vehicle: saline with Tween-80
[9] = dose: 50.0 mg/kg/injection, schedule: Q01DX001 (ip), vehicle: saline
[10] = dose: 100.0 mg/kg/injection, schedule: Q01DX001 (ip), vehicle: saline
[11] = dose: 200.0 mg/kg/injection, schedule: Q01DX001 (ip), vehicle: saline
[12] = dose: 400.0 mg/kg/injection, schedule: Q01DX001 (ip), vehicle: saline
[13] = dose: 100.0 mg/kg/injection, schedule: Q04DX003 (ip), vehicle: saline

Measured: T/C

Cc1cc(N(CCCl)CCCl)ccc1N=Nc1ccccc1C(=O)[O-].Cc1cc(N(CCCl)CCCl)ccc1N=Nc1ccccc1C(=O)[O-].[Cu+2]
inactive: dose: 2.0 mg/kg/injection, schedule: Q01DX015 (ip), vehicle: carboxymethylcellulose (CMC) 111 % of control | dose: 4.0 mg/kg/injection, schedule: Q01DX015 (ip), vehicle: carboxymethylcellulose (CMC) 117 % of control | dose: 8.0 mg/kg/injection, schedule: Q01DX015 (ip), vehicle: carboxymethylcellulose (CMC) 120 % of control | dose: 15.0 mg/kg/injection, schedule: Q01DX015 (ip), vehicle: carboxymethylcellulose (CMC) 123 % of control

CCN(CC)c1ccc(C(=O)c2ccc(N(CC)CC)cc2)cc1
inactive: dose: 15.0 mg/kg/injection, schedule: Q01DX Z (ip), vehicle: carboxymethylcellulose (CMC) 88 % of control | dose: 30.0 mg/kg/injection, schedule: Q01DX Z (ip), vehicle: carboxymethylcellulose (CMC) 92 % of control | dose: 60.0 mg/kg/injection, schedule: Q01DX Z (ip), vehicle: carboxymethylcellulose (CMC) 92 % of control and 95 % of control | dose: 120.0 mg/kg/injection, schedule: Q01DX Z (ip), vehicle: carboxymethylcellulose (CMC) 94 % of control and 100 % of control | dose: 240.0 mg/kg/injection, schedule: Q01DX Z (ip), vehicle: carboxymethylcellulose (CMC) 100 % of control | dose: 480.0 mg/kg/injection, schedule: Q01DX Z (ip), vehicle: carboxymethylcellulose (CMC) 118 % of control

CC(CN1CCN(C)CC1)CN1c2ccccc2Sc2ccc(C(F)(F)F)cc21 (stereo not drawn)
inactive: dose: 3.12 mg/kg/injection, schedule: Q01DX009 (ip), vehicle: saline 101 % of control | dose: 6.25 mg/kg/injection, schedule: Q01DX009 (ip), vehicle: saline 106 % of control | dose: 12.5 mg/kg/injection, schedule: Q01DX009 (ip), vehicle: saline 113 % of control | [1] 111 % of control | [2] 117 % of control | [3] 101 % of control | [4] 111 % of control | [5] 98 % of control | [6] 113 % of control | [7] 96 % of control | [8] 107 % of control

COC(=O)c1c(C)n(C)c2c1c1c(O)c3c(O)c(C)c4c(c32)C(=O)C(C)(O/C=C/C(OC)C(C)C(OC(C)=O)C(C)C(O)C(C)C(O)C(C)/C=C\C=C(C)C(=O)N1)O4 (stereo not drawn)
inactive: dose: 50.0 mg/kg/injection, schedule: Q04DX003 (ip), vehicle: water 104 % of control | dose: 100.0 mg/kg/injection, schedule: Q04DX003 (ip), vehicle: water 100 % of control | dose: 200.0 mg/kg/injection, schedule: Q04DX003 (ip), vehicle: water 98 % of control | dose: 400.0 mg/kg/injection, schedule: Q04DX003 (ip), vehicle: water 98 % of control

Cc1ccc(NC(=S)/C(=C(/[O-])c2ccc([N+](=O)[O-])cc2)[n+]2ccccc2)c(C)c1
inactive: dose: 100.0 mg/kg/injection, schedule: Q01DX009 (ip), vehicle: Klucel (hydroxypropylcellulose) (HPC) 101 % of control | dose: 200.0 mg/kg/injection, schedule: Q01DX009 (ip), vehicle: Klucel (hydroxypropylcellulose) (HPC) 97 % of control | dose: 400.0 mg/kg/injection, schedule: Q01DX009 (ip), vehicle: Klucel (hydroxypropylcellulose) (HPC) 95 % of control

c1ccc(-c2cc(-c3ccccc3)[nH]n2)cc1
inactive: [8] 100 % of control | dose: 200.0 mg/kg/injection, schedule: Q04DX003 (ip), vehicle: saline with Tween-80 110 % of control | dose: 400.0 mg/kg/injection, schedule: Q04DX003 (ip), vehicle: saline with Tween-80 105 % of control

COC(=O)C(CCCN(C)C)(CCCN(C)C)c1cccc2ccccc12
inactive: [8] 96 % of control

CC(=O)Nc1ccc(S(=O)(=O)N(CCO)c2ccccc2)cc1
inactive: dose: 100.0 mg/kg/injection, schedule: Q04DX003 (ip), vehicle: Klucel (hydroxypropylcellulose) (HPC) 97 % of control | dose: 200.0 mg/kg/injection, schedule: Q04DX003 (ip), vehicle: Klucel (hydroxypropylcellulose) (HPC) 90 % of control | dose: 400.0 mg/kg/injection, schedule: Q04DX003 (ip), vehicle: Klucel (hydroxypropylcellulose) (HPC) 90 % of control

COc1cc(Br)c(CC(=O)c2c[nH]c3ccc(Br)cc23)cc1OC
inactive: [9] 100 % of control | [10] 94 % of control | [11] 105 % of control | [12] 94 % of control

N#Cc1cc2ccccc2nc1N
inactive: dose: 100.0 mg/kg/injection, schedule: Q01DX001 (ip), vehicle: carboxymethylcellulose (CMC) 98 % of control | dose: 200.0 mg/kg/injection, schedule: Q01DX001 (ip), vehicle: carboxymethylcellulose (CMC) 93 % of control | dose: 400.0 mg/kg/injection, schedule: Q01DX001 (ip), vehicle: carboxymethylcellulose (CMC) 98 % of control

N#CCCCN1CCCCCC1
inactive: [2] 98 % of control | [3] 101 % of control | [5] 93 % of control | [6] 101 % of control | [13] 101 % of control

CNC(=O)Oc1coc(CCl)cc1=O
inactive: dose: 37.5 mg/kg/injection, schedule: Q01DX001 (ip), vehicle: other 106 % of control | dose: 75.0 mg/kg/injection, schedule: Q01DX001 (ip), vehicle: other 101 % of control | dose: 150.0 mg/kg/injection, schedule: Q01DX001 (ip), vehicle: other 104 % of control

CC(=O)Nc1ccc(NS(=O)(=O)O)cc1
inactive: [9] 96 % of control | [10] 96 % of control | [11] 93 % of control | [12] 96 % of control

Brc1ccc(C[N+]23CN4CN(CN(C4)C2)C3)cc1
inactive: dose: 15.0 mg/kg/injection, schedule: Q01DX015 (ip), vehicle: saline 103 % of control | dose: 30.0 mg/kg/injection, schedule: Q01DX015 (ip), vehicle: saline 102 % of control | dose: 60.0 mg/kg/injection, schedule: Q01DX015 (ip), vehicle: saline 102 % of control | [7] 101 % of control | [13] 105 % of control | dose: 120.0 mg/kg/injection, schedule: Q01DX015 (ip), vehicle: saline 105 % of control | dose: 200.0 mg/kg/injection, schedule: Q01DX009 (ip), vehicle: saline with Tween-80 102 % of control | dose: 200.0 mg/kg/injection, schedule: Q04DX003 (ip), vehicle: saline 103 % of control | dose: 240.0 mg/kg/injection, schedule: Q01DX015 (ip), vehicle: saline 98 % of control | dose: 400.0 mg/kg/injection, schedule: Q04DX003 (ip), vehicle: saline 92 % of control

CSc1ccc(NC(=O)Nc2ccc(N=Nc3ccccc3)cc2)cc1
inactive: dose: 12.5 mg/kg/injection, schedule: Q01DX009 (ip), vehicle: saline with Tween-80 95 % of control | [1] 92 % of control | [4] 95 % of control | dose: 50.0 mg/kg/injection, schedule: Q04DX003 (ip), vehicle: Klucel (hydroxypropylcellulose) (HPC) 87 % of control | dose: 75.0 mg/kg/injection, schedule: Q01DX009 (ip), vehicle: saline with Tween-80 106 % of control | dose: 100.0 mg/kg/injection, schedule: Q01DX001 (ip), vehicle: other 89 % of control | dose: 115.0 mg/kg/injection, schedule: Q01DX009 (ip), vehicle: saline with Tween-80 92 % of control | dose: 170.0 mg/kg/injection, schedule: Q01DX009 (ip), vehicle: saline with Tween-80 90 % of control | dose: 200.0 mg/kg/injection, schedule: Q01DX001 (ip), vehicle: other 89 % of control
